From US10294256B2, “Phosphine oxide alkyl amide substituted heteroaryl compounds as modulators of IL-12, IL-23 and/or IFN alpha responses” (BRISTOL-MYERS SQUIBB COMPANY, priority 2016, dated 2019)
Like-named read-outs stand apart in the source and are kept apart here.

Columns and labels:
[1] = molecular target: recombinant human His-tagged Tyk2 pseudokinase domain (His-TVMV-Tyk2, 575-869) (Homo sapiens, UniProt P29597); assay: Probe Displacement Assay (HTRF Format); details: 0.5 nM Tyk2 pseudokinase domain, 1 h room temperature, read-out: Binding IC50
Method: To 10 μL 26 nM fluorescein labeled probe plus 0.2 nM anti-6×His-terbium labeled antibody (Medarex, labeled by Cisbio) in assay buffer (20 mM Hepes pH 7.5, 150 mM NaCl, 10 mM MgCl2, 2 mM DTT, 50 μg/mL BSA, and 0.015% Brij 35) was added 10 μL recombinant human His-tagged Tyk2 pseudokinase domain (His-TVMV-Tyk2, 575-869) to a final concentration of 0.5 nM. After 1 h at room temperature, the HTRF signal (ratio of fluorescence intensities at emission wavelengths for fluorescein acceptor at 520 nm and terbium donor at 495 nm) was measured on an Envision Plate Reader. Percent inhibition was calculated by comparison to a control without inhibitor and a control without protein.
Protein Sequence of recombinant His-tagged Tyk2 (575-869): […]

[2] = test system: IL-23 stimulated Kit225 T cells with STAT-dependent luciferase reporter; assay: Kit225 T Cell Assay, IL-23 stimulated STAT-dependent luciferase reporter; type: cell-based, human
Method: (§1) Kit225 T cells with a stably-integrated STAT-dependent luciferase reporter were plated in RPMI (Gibco) containing 10% heat-inactivated FBS (Gibco) and 100 U/mL PenStrep (Gibco). The cells were then stimulated with either 20 ng/mL human recombinant IL-23 or 200 U/mL human recombinant IFNα (PBL InterferonSource) for 5-6 hours. Luciferase expression was measured using the STEADY-GLO® Luciferase Assay System (Promega) according to the manufacturer's instructions. Inhibition data were calculated by comparison to no inhibitor control wells for 0% inhibition and non-stimulated control wells for 100% inhibition.

[3] = test system: IFNα stimulated Kit225 T cells with STAT-dependent luciferase reporter; assay: Kit225 T Cell Assay, IFNα stimulated STAT-dependent luciferase reporter; type: cell-based, human
Method: as §1

[4] = KIT225, 20 ng/mL human recombinant IL-23, 5-6 hours, luciferase reporter, read-out: IL23 Kit 225 IC50
[5] = KIT225, 200 U/mL human recombinant IFNα, 5-6 hours, luciferase reporter, read-out: IFN[…] Kit 225 IC50

Chain of recombinant human His-tagged Tyk2 pseudokinase domain (His-TVMV-Tyk2, 575-869) (P29597 with tags, fused parts or gaps): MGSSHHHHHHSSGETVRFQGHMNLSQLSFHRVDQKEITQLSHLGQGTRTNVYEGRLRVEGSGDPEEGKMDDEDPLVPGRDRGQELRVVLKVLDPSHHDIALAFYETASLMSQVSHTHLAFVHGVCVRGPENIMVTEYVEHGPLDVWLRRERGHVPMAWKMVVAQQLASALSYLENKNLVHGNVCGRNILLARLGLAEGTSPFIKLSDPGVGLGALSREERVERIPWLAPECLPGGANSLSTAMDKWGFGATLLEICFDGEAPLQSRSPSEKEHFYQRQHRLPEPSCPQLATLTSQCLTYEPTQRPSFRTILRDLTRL

Compound	IC50 [1] [nM]	IC50 [2, 4] [nM]	IC50 [3, 5] [nM]	IC50 ([2]; Homo sapiens, KIT225, read-out: IL23 Kit 225 IC50) [nM]	IC50 ([3]; Homo sapiens, KIT225, read-out: IFN[…] Kit 225 IC50) [nM]
[2H]C([2H])([2H])NC(=O)c1nnc(Nc2ccc(C3CC3)cn2)cc1Nc1ccccc1P(C)(C)=O [Example 5]	5.2	390	337	–	–
[2H]C([2H])([2H])NC(=O)c1nnc(Nc2ccc(C)cn2)cc1Nc1ncccc1P(C)(C)=O [Example 30]	0.56	121	32.3	–	–
[2H]C([2H])([2H])NC(=O)c1nnc(Nc2cccc(F)n2)cc1Nc1ncccc1P(C)(C)=O [Example 22]	0.037	–	–	40	15
[2H]C([2H])([2H])NC(=O)c1nnc(Nc2ccc(C(C)(C)O)c(F)n2)cc1Nc1ncccc1P(C)(C)=O [Example 34]	0.86	1350	350	–	–
[2H]C([2H])([2H])NC(=O)c1nnc(Nc2ccc(C(O)(C(F)(F)F)C(F)(F)F)cn2)cc1Nc1ncccc1P(C)(C)=O [Example 41]	0.92	322	206	–	–
[2H]C([2H])([2H])NC(=O)c1nnc(NC(=O)C2CC2)cc1Nc1ccccc1P(C)(C)=O [Example 2]	7.4	1800	3170	–	–
[2H]C([2H])([2H])NC(=O)c1nnc(Nc2ccc(N3CCOCC3)cn2)cc1Nc1ncccc1P(C)(C)=O [Example 42]	0.62	298	266	–	–
[2H]C([2H])([2H])NC(=O)c1nnc(NC(=O)C2CC23CC3)cc1Nc1ncccc1P(C)(C)=O (stereo not drawn) [Example 33]	2.9	3720	1480	–	–
[2H]C([2H])([2H])NC(=O)c1nnc(Nc2cccc(C(F)(F)F)n2)cc1Nc1ncccc1P(C)(C)=O [Example 40]	0.46	256	137	–	–
[2H]C([2H])([2H])NC(=O)c1nnc(Nc2cc(C3CC3)ccn2)cc1Nc1ccccc1P(C)(C)=O [Example 1]	3.4	383	242	–	–
[2H]C([2H])([2H])NC(=O)c1nnc(Nc2cc(C3CC3)ccn2)cc1Nc1ncccc1P(C)(C)=O [Example 12]	0.74	92	144	–	–
[2H]C([2H])([2H])NC(=O)c1nnc(Nc2ccc(C3CC3)cn2)cc1Nc1ncccc1P(C)(C)=O [Example 17]	0.27	58	43	–	–
[2H]C([2H])([2H])NC(=O)c1nnc(Nc2ccc(OC)nn2)cc1Nc1ccccc1P(C)(C)=O [Example 4]	10	2570	9160	–	–
[2H]C([2H])([2H])NC(=O)c1nnc(Nc2ccc(F)c(C)n2)cc1Nc1ncccc1P(C)(C)=O [Example 31]	0.54	45.3	53.9	–	–
[2H]C([2H])([2H])NC(=O)c1nnc(Nc2ccc(OC(F)(F)F)cn2)cc1Nc1ncccc1P(C)(C)=O [Example 13]	0.43	44	22	–	–
[2H]C([2H])([2H])NC(=O)c1nnc(Nc2ccn(C)n2)cc1Nc1ccccc1P(C)(C)=O [Example 8]	12	3700	1760	–	–

More lines, in order of falling IC50 [1], values ahead:

IC50 [1] [nM]	IC50 [2, 4] [nM]	IC50 [3, 5] [nM]	Compound	IC50 ([2]; Homo sapiens, KIT225, read-out: IL23 Kit 225 IC50) [nM]	IC50 ([3]; Homo sapiens, KIT225, read-out: IFN[…] Kit 225 IC50) [nM]
17	6320	6340	[2H]C([2H])([2H])NC(=O)c1nnc(NC(=O)C2CC2(C)C)cc1Nc1ncccc1P(C)(C)=O (stereo not drawn) [Example 28]	–	–
13	1440	799	[2H]C([2H])([2H])NC(=O)c1nnc(Nc2ccc(N3CCOCC3)cn2)cc1Nc1ccccc1P(C)(C)=O [Example 7]	–	–
13	12500	4610	[2H]C([2H])([2H])NC(=O)c1nnc(NC(=O)[C@H]2CC2(C)C)cc1Nc1ncccc1P(C)(C)=O [Example 27]	–	–
9.8	817	4160	[2H]C([2H])([2H])NC(=O)c1nnc(NC(=O)OCC)cc1Nc1ncccc1P(C)(C)=O [Example 19]	–	–
2.2	3110	423	[2H]C([2H])([2H])NC(=O)c1nnc(Nc2ccc(C(C)(C)O)cn2)cc1Nc1ccccc1P(C)(C)=O [Example 6]	–	–
2	1150	666	[2H]C([2H])([2H])NC(=O)c1nnc(Nc2ccn(C)n2)cc1Nc1ncccc1P(C)(C)=O [Example 23]	–	–
1.6	3470	1560	[2H]C([2H])([2H])NC(=O)c1nnc(Nc2cc(C)nc(C)n2)cc1Nc1ccccc1P(C)(C)=O [Example 3]	–	–
1.4	282	514	[2H]C([2H])([2H])NC(=O)c1nnc(NC(=O)C2CC2)cc1Nc1ncccc1P(C)(C)=O [Example 9]	–	–
1.2	1770	2290	[2H]C([2H])([2H])NC(=O)c1nnc(Nc2ccc(C(C)(C)N)cn2)cc1Nc1ncccc1P(C)(C)=O [Example 35]	–	–
0.97	84	33	[2H]C([2H])([2H])NC(=O)c1nnc(Nc2cccc(OC)n2)cc1Nc1ncccc1P(C)(C)=O [Example 24]	–	–
0.79	212	125	[2H]C([2H])([2H])NC(=O)c1nnc(Nc2ccccn2)cc1Nc1ncccc1P(C)(C)=O [Example 14]	–	–
0.62	19	50	[2H]C([2H])([2H])NC(=O)c1nnc(Nc2cc(C)ccn2)cc1Nc1ncccc1P(C)(C)=O [Example 21]	–	–
0.58	67	50	[2H]C([2H])([2H])NC(=O)c1nnc(Nc2cc(COC)ccn2)cc1Nc1ncccc1P(C)(C)=O [Example 20]	–	–
0.58	132	90	[2H]C([2H])([2H])NC(=O)c1nnc(Nc2cc(F)ccn2)cc1Nc1ncccc1P(C)(C)=O [Example 25]	–	–
0.54	114	48	[2H]C([2H])([2H])NC(=O)c1nnc(Nc2ccc(F)cn2)cc1Nc1ncccc1P(C)(C)=O [Example 15]	–	–
0.54	62	22.8	[2H]C([2H])([2H])NC(=O)c1nnc(Nc2ccc(C)c(C)n2)cc1Nc1ncccc1P(C)(C)=O [Example 29]	–	–
0.53	927	905	[2H]C([2H])([2H])NC(=O)c1nnc(Nc2cc(Cl)c(C(C)(C)O)cn2)cc1Nc1ncccc1P(C)(C)=O [Example 36]	–	–
0.44	58	33	[2H]C([2H])([2H])NC(=O)c1nnc(Nc2cccc(C)n2)cc1Nc1ncccc1P(C)(C)=O [Example 18]	–	–
0.38	52.8	74	[2H]C([2H])([2H])NC(=O)c1nnc(Nc2ccc(Cl)cn2)cc1Nc1ncccc1P(C)(C)=O [Example 37]	–	–
0.34	59.4	217	[2H]C([2H])([2H])NC(=O)c1nnc(Nc2ccc(C(F)(F)F)cn2)cc1Nc1ncccc1P(C)(C)=O [Example 39]	–	–
0.29	1210	673	[2H]C([2H])([2H])NC(=O)c1nnc(Nc2ccc(C(C)(C)O)cn2)cc1Nc1ncccc1P(C)(C)=O [Example 16]	–	–
